For 9 compounds, EC50 and activation results are on record in patent US20170354639A1, “DITERPENOID DERIVATIVES AND METHODS OF USE THEREOF” (Biogen MA Inc., priority 2014, published 2017).

The test addresses Nrf2-Keap1 (Homo sapiens, UniProt Q14145). Kind of test: DiscoveRx PathHunter Nrf2-Keap1 nuclear translocation functional assay (agonist format). It counts as cell-based. The conditions noted are these: in duplicate, agonist mode; for EC50: 10 concentrations, 3-fold serial dilutions, 30 μM top concentration, normalized to CDDO methyl ester and vehicle; for activation at 10 µM: single concentration of 10 μM, normalized to control ligand (CDDO methyl ester) and vehicle. On the procedure: DiscoveRx PathHunter® Nrf2-Keap1 Functional Assay
DiscoveRx's Nrf2-Keapl translocation assay was used to profile compounds. Primary Screening was performed in duplicate at a single concentration of 10 μM and EC50 determinations were performed in duplicate at 10 concentrations with 3-fold serial dilutions at a 30 μM top concentration or an otherwise specified top concentration.
The PathHunter® Nuclear Translocation assay detects translocation of a target protein to, or from, the nucleus. In this system, Prolink™ (PK), a small enzyme fragment, is fused to the protein of interest and Enzyme Acceptor (EA) is localized in the nucleus. Activation of the signaling pathway induces the target protein to either transit into the nucleus, thus forcing complementation of the PK and EA fragments, or out of the nucleus, hindering complementation of the fragments.
Cell handling: PathHunter Pathway cell lines were expanded from freezer stocks according to standard procedures. 5000 cells were seeded in Cell Plating Reagent 0 (containing 1% FBS) to a total volume of 20 μL into white walled, 384-well microplates and incubated for the overnight prior to testing.
Agonist format: For Agonist determination, cells were incubated with sample to induce response. Dilution of sample stocks was performed to generate 100× sample in DMSO. Intermediate dilution of sample stocks was performed to generate 5× sample in assay buffer (Cell Plating Reagent 0 containing 1% FBS). 5 μL of 5× sample was added to cells and incubated at room temperature for 6 hours. Vehicle concentration was 1%.
Signal detection: Assay signal was generated through a single addition of 25 μL (100% v/v) of PathHunter Flash Detection reagent, followed by a one hour incubation at room temperature. Microplates were read following signal generation with a PerkinElmer Envision™ instrument for chemiluminescent signal detection.
Data analysis: Compound activity was analyzed using CBIS data analysis suite (ChemInnovation, CA). For agonist mode assays, percentage activity was calculated using the following formula: % Activity=100%×(mean RLU of test sample−mean RLU of vehicle control)/(mean MAX RLU control ligand−mean RLU of vehicle control). For EC50 determination, a control agonist dose response curve was generated in the Keap 1-Nrf2 biosensor assay, data was normalized to the maximal and minimal response observed in the presence of the control ligand and vehicle respectively. CDDO methyl ester was used as a control compound. Compounds were tested in the agonist mode of the assay and data was normalized to the maximal and minimal response observed in the presence of control ligand and vehicle.

The structures appear in SMILES notation.

Chain of Nrf2-Keap1 (Q14145 whole entry): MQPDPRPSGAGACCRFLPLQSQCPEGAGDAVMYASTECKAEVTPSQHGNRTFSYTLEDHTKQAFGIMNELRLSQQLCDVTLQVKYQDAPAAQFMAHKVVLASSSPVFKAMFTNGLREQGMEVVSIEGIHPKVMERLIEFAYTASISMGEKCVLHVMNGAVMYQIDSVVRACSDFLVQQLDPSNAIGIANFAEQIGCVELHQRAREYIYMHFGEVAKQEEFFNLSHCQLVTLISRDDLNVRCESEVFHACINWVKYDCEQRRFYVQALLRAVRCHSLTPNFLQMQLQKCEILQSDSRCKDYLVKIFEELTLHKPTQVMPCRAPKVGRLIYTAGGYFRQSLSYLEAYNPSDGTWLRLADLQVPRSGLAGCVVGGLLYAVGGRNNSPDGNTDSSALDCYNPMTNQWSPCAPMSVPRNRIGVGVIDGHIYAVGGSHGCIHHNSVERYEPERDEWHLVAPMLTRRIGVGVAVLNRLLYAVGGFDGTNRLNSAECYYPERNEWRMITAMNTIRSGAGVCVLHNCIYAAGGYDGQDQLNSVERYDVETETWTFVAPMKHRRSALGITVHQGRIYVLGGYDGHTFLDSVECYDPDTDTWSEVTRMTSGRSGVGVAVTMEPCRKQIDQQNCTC

With `C=C1CC[C@@H]2[C@]3(C)CO[S@@](=O)O[C@@H]3CC[C@@]2(C)[C@@H]1C/C=C1/C(=O)OC[C@H]1O` [Example 9, (S,E)-3-(2-((3R,4aR,6aS,7R,10aS,10bR)-6a,10b-dimethyl-8-methylene-3-oxidodecahydro-1H-naphtho[2,1-d][1,3,2]dioxathiin-7-yl)ethylidene)-4-hydroxydihydrofuran-2(3H)-one], the EC50 was 500 to 2000 nM. On to `C=C1CC[C@@H]2[C@]3(C)CO[S@](=O)O[C@@H]3CC[C@@]2(C)[C@@H]1C/C=C1/C(=O)OC[C@@H]1O` [Example 10, (R,E)-3-(2-((3S,4aR,6aS,7 R,10aS,10bR)-6a,10b-dimethyl-8-methylene-3-oxidodecahydro-1H-naphtho[2,1-d][1,3,2]dioxathiin-7-yl)ethylidene)-4-hydroxydihydrofuran-2(3H)-one], for which the activation at 10 µM (6 h) was 51 to 100%. As to `C=C1CC[C@H]2[C@@](C)(CCC3=NOC[C@]32C)[C@@H]1C/C=C1/C(=O)OC[C@H]1O` [Example 11, (S,E)-3-(2-((5aS,6R,9aS,9bS)-5a,9b-dimethyl-7-methylene-1,4,5,5a,6,7,8,9,9a,9b-decahydronaphtho[2,1-c]isoxazol-6-yl)ethylidene)-4-hydroxydihydrofuran-2(3H)-one], the concentration for a half-maximal effect (EC50) was in the range of 500 to 2000 nM. For the same compound, the activation at 10 µM (6 h) is over 100%. On to `C=C1CC[C@@H]2[C@]3(C)C=NO[C@@H]3CC[C@@]2(C)[C@@H]1C/C=C1/C(=O)OC[C@H]1O` [Example 12, (S,E)-3-(2-((3aR,5aS,6R,9aS,9bR)-5a,9b-dimethyl-7-methylene-3a,4,5,5a,6,7,8,9,9a,9b-decahydronaphtho[1,2-d]isoxazol-6-yl)ethylidene)-4-hydroxydihydrofuran-2(3H)-one], for which the EC50 is 500 to 2000 nM. Also, for the setting “6 hours”, the activation at 10 µM was in the range of 51 to 100%. In the case of `C=C1CC[C@H]2[C@@](C)(CC[C@@]3(C)O[S@@](=O)OC[C@@]23C)[C@@H]1C/C=C1/C(=O)OC[C@H]1O` [Example 13, (S,E)-4-hydroxy-3-(2-((3S,4aR,6aS,7R,10aS,10bR)-4a,6a,10b-trimethyl-8-methylene-3-oxidodecahydro-1H-naphtho[2,1-d][1,3,2]dioxathiin-7-yl)ethylidene)dihydrofuran-2(3H)-one], the EC50 was in the range of 500 to 2000 nM. The compound also registered an activation at 10 µM (6 h) of over 100%.

As to `C=C1CC[C@H]2[C@@](C)(CC[C@@]3(C)ON=C[C@@]23C)[C@@H]1C/C=C1/C(=O)OC[C@H]1O` [Example 14, (S,E)-4-hydroxy-3-(2-((3aR,5aS,6R,9aS,9bR)-3a,5a,9b-trimethyl-7-methylene-3a,4,5,5a,6,7,8,9,9a,9b-decahydronaphtho[1,2-d]isoxazol-6-yl)ethylidene)dihydrofuran-2(3H)-one], the EC50 is over 2000 nM. Moreover, for the setting “6 h”, the activation at 10 µM was over 100%.

As to `C=C1CC[C@@H]2[C@@H](C)[C@H](NC)CC[C@@]2(C)[C@@H]1C/C=C1/C(=O)OC[C@H]1O` [Example 15, (4S,E)-3-(2-((1R,4aR,5R,8aR)-5,8a-dimethyl-6-(methylamino)-2-methylenedecahydronaphthalen-1-yl)ethylidene)-4-hydroxydihydrofuran-2(3H)-one], the EC50 fell in the range of 500 to 2000 nM. The same compound registered an activation at 10 µM (6 h) of 51 to 100%.

For the compound `C=C1CC[C@@H]2[C@@H](C)[C@H](OC)CC[C@@]2(C)[C@@H]1C/C=C1/C(=O)OC[C@H]1O` [Example 16, (S,E)-4-hydroxy-3-(2-((1R,4aR,5R,6R,8aR)-6-methoxy-5,8a-dimethyl-2-methylenedecahydronaphthalen-1-yl)ethylidene)dihydrofuran-2(3H)-one], the concentration for a half-maximal effect (EC50) was under 500 nM. Where the note is “6 h”, this compound yielded an activation at 10 µM of over 100%. For `CO[C@@H]1CC[C@@]2(C)[C@H](C/C=C3/C(=O)OC[C@H]3O)C(C)=CC[C@@H]2[C@H]1C` [Example 17, (S,E)-4-hydroxy-3-(2-((1R,4aR,5R,6R,8aR)-6-methoxy-2,5,8a-trimethyl-1,4,4a,5,6,7,8,8a-octahydronaphthalen-1-yl)ethylidene)dihydrofuran-2(3H)-one], the EC50 lay within 500 to 2000 nM. Moreover, the activation at 10 µM (6 h) fell in the range of 51 to 100%.

For orientation: EC50 means the concentration that produces a half-maximal response. Low readings indicate higher potency in that assay, high ones lower potency in that assay.
